Like-named read-outs stand apart in the source and are kept apart here.
What was measured:
[1] = system: ATPase, Na+/K+, Heart, Pig; assay: Secondary toxicity screen (MDS Pharma Services): ATPase, Na+/K+; type: biochemical
[2] = molecular target: Nitric Oxide Synthase, Endothelial (eNOS) (Homo sapiens, UniProt P29474); assay: Secondary toxicity screen: eNOS; type: biochemical
[3] = molecular target: Protein Tyrosine Kinase, FGFR2 (Homo sapiens, UniProt P21802); assay: Secondary toxicity screen: FGFR2; type: biochemical
Protein Tyrosine Kinase, FGFR2, sequence (P21802 22-821): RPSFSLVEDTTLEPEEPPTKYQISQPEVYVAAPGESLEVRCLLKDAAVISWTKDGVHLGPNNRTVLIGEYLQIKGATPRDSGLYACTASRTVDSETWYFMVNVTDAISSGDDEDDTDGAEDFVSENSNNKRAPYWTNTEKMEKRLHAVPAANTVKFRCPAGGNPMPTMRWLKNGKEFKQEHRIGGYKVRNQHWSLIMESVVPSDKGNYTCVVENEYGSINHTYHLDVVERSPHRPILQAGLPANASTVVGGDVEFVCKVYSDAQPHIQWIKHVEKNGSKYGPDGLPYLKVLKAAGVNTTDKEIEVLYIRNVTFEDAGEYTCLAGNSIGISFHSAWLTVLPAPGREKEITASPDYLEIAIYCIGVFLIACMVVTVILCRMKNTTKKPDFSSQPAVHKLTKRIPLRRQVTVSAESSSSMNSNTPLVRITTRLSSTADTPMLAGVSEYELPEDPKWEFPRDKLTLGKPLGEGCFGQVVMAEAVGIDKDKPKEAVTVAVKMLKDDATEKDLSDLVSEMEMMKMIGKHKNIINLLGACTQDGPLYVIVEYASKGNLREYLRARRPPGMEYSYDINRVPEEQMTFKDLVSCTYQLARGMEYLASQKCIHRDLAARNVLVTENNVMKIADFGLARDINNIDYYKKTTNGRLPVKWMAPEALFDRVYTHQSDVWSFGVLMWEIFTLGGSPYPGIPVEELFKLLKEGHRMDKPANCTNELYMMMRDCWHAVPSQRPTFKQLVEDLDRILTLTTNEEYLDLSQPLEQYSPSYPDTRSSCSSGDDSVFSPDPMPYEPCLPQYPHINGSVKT

[4] = molecular target: Protein Tyrosine Kinase, FGFR1 (Homo sapiens, UniProt P11362); assay: Secondary toxicity screen: FGFR1; type: biochemical
Protein Tyrosine Kinase, FGFR1, sequence (P11362 22-822): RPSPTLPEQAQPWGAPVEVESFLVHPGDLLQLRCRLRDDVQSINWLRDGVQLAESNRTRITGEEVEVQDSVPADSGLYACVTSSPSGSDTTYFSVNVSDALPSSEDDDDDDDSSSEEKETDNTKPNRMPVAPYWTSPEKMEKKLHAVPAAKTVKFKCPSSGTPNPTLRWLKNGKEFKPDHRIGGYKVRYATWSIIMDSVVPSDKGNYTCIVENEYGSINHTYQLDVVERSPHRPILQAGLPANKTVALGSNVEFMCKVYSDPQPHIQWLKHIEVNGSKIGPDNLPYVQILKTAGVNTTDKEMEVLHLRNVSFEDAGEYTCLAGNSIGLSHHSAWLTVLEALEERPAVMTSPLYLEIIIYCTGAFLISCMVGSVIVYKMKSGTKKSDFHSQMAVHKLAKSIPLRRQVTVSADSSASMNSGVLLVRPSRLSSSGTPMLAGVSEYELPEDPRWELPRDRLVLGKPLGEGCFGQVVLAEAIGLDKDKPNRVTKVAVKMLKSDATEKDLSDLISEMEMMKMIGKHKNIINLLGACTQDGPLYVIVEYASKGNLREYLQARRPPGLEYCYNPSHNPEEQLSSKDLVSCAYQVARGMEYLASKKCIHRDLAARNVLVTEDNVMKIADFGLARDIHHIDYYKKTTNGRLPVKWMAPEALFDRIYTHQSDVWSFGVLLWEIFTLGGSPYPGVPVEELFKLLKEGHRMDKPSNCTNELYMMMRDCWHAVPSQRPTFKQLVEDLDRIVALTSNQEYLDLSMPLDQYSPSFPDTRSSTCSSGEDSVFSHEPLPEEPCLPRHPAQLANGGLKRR

[5] = molecular target: Protein Tyrosine Kinase, Insulin Receptor (Homo sapiens, UniProt P06213); assay: Secondary toxicity screen: Insulin Receptor kinase; type: biochemical
Protein Tyrosine Kinase, Insulin Receptor, sequence (P06213 28-1382): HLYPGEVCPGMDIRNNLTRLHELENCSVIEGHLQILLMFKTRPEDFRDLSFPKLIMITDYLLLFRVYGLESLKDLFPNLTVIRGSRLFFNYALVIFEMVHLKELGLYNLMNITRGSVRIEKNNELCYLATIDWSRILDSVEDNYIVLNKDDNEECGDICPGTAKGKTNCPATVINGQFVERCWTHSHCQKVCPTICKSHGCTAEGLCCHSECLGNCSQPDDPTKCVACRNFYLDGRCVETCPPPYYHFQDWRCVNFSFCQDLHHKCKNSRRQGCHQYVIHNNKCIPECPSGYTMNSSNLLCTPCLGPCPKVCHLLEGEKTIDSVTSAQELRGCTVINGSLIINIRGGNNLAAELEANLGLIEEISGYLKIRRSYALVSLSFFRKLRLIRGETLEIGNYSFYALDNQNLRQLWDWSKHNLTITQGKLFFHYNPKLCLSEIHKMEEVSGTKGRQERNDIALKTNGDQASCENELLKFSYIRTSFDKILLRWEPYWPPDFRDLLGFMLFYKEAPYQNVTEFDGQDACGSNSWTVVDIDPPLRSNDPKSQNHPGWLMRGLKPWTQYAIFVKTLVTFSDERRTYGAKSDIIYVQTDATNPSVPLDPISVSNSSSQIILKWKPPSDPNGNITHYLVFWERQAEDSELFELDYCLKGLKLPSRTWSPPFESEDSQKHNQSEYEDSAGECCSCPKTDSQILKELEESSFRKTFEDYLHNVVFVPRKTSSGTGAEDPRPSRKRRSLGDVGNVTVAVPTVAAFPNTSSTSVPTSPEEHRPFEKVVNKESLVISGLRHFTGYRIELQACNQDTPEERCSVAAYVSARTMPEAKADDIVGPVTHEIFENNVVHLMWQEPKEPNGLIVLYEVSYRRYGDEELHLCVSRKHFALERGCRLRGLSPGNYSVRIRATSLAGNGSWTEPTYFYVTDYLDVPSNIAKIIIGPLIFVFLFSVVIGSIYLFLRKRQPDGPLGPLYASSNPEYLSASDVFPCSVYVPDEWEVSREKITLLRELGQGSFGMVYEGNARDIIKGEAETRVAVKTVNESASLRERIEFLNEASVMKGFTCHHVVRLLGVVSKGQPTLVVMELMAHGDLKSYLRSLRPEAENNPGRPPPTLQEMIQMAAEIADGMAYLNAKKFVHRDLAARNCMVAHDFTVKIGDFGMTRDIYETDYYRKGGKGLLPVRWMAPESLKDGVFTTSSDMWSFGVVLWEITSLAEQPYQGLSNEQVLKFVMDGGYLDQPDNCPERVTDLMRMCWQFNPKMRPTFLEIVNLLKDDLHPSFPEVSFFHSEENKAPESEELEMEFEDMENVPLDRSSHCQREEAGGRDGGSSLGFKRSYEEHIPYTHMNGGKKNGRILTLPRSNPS

Protein Tyrosine Kinase, = assay: Secondary toxicity screen: Protein Tyrosine Kinase (name not given); type: biochemical
[6] = molecular target: Protein Tyrosine Kinase, ZA70 (ZAP-70) (Homo sapiens, UniProt P43403); assay: Secondary toxicity screen: ZAP-70; type: biochemical
Protein Tyrosine Kinase, ZA70 (ZAP-70), sequence (P43403 whole entry, species assumed): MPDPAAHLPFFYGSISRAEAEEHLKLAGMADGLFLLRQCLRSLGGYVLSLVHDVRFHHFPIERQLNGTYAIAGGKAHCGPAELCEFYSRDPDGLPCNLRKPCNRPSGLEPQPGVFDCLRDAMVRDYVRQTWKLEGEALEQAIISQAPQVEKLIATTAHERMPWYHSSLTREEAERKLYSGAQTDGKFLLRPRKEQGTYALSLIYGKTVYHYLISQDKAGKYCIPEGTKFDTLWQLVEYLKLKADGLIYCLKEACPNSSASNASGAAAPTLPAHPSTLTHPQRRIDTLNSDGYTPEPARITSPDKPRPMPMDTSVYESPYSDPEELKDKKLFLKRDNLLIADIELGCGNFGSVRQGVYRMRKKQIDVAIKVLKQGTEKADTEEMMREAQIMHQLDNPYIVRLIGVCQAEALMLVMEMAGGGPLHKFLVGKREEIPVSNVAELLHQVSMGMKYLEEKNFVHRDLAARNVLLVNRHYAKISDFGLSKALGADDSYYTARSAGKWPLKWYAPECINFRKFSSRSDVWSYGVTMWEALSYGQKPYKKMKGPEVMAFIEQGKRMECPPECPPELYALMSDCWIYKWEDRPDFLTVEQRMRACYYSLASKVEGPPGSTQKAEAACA

AdenosineA1 [7] = molecular target: T1, AdenosineA1 (Homo sapiens, UniProt P30542); assay: Secondary toxicity screen: Adenosine A1; type: binding
T1 sequence (P30542 1-326): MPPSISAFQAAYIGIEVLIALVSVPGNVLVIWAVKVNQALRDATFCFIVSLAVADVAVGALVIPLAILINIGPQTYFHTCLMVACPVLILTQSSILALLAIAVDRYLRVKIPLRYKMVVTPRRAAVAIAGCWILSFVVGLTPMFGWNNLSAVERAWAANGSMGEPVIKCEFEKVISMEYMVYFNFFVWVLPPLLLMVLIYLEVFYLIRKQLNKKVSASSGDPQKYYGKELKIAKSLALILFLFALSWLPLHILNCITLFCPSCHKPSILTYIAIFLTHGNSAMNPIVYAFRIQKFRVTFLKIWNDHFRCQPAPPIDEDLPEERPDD

Adrenergic α2A = Adrenergic α2A (Homo sapiens, UniProt P08913); assay: Secondary toxicity screen: Adrenergic α2A; type: binding
Dopamine D47 = assay: Secondary toxicity screen: Dopamine D47; type: binding
[8] = molecular target: Peripheral Benzodiazepine Receptor (PBR) (Homo sapiens, UniProt P30536); assay: Secondary toxicity screen: Peripheral Benzodiazepine Receptor; type: binding
Peripheral Benzodiazepine Receptor (PBR), sequence (P30536 whole entry, species assumed): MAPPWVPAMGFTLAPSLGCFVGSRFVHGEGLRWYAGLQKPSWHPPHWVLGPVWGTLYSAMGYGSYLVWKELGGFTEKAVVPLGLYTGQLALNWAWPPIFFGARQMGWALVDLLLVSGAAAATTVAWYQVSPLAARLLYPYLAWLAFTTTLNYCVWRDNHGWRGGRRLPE

[9] = system: Transporter, Monoamine rabbit; assay: Secondary toxicity screen: Transporter, Monoamine; type: binding
[10] = molecular target: Serotonin (5-Hydroxytryptamine) 5-HT1A (Homo sapiens, UniProt P08908); assay: Secondary toxicity screen: 5-HT1A; type: binding
Serotonin (5-Hydroxytryptamine) 5-HT1A, sequence (P08908 whole entry): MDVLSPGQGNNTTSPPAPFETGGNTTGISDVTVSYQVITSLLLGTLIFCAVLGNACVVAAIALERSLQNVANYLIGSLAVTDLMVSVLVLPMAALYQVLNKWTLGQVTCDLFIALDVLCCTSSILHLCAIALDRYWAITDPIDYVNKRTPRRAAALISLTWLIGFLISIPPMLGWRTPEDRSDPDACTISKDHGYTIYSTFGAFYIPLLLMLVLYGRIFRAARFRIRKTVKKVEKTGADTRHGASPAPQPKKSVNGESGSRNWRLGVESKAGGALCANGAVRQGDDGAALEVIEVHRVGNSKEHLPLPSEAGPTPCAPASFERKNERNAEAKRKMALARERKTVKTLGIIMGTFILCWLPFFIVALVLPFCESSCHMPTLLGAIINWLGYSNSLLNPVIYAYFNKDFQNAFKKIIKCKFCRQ

AdenosineA1 [11] = molecular target: T1, AdenosineA1; assay: AdenosineA1 GTPγS functional assay; type: biochemical
Method: (§1) The compound is additionally tested in AdenosineA1, AdrenergicA2A, DopamineD25, Histamine H1-, and μ-Opiate GTPγS functional assays using a concentration of 10 μM.
(§2) The compound may be additionally tested in AdenosineA1, AdrenergicA2A, DopamineD25, Histamine H1-, and μ-Opiate GTPγS functional assays using a concentration of 10 μM.
(§3) The compound can be additionally tested in AdenosineA1, AdrenergicA2A, DopamineD25, Histamine H1-, and μ-Opiate GTPγS functional assays using a concentration of 10 μM.

AdrenergicA2A = molecular target: T2, AdrenergicA2A (Homo sapiens, UniProt P08913); assay: AdrenergicA2A GTPγS functional assay; type: biochemical
T2 sequence (P08913 1-465): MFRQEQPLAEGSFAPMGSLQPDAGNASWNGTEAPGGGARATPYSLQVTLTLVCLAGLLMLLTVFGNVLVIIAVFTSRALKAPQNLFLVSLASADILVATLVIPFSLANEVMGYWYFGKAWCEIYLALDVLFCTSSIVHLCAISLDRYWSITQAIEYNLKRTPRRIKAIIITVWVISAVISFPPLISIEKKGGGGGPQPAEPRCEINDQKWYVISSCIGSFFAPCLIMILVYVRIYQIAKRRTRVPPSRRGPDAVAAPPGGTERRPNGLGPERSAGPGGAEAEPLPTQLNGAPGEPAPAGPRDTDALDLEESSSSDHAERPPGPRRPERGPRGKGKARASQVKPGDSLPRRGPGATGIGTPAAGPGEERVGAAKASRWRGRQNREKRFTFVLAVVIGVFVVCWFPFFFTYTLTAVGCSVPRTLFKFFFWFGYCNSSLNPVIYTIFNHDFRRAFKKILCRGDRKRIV
Method: as §1, §2, §3

[12] = pH 8
Method: Quercetin-3′-O-phosphate is dissolved in water at about pH 8.
Fisetin-3′-O-phosphate is dissolved in water at about pH 8.
Quercetin-3′-O-methylphosphonate (Compound 2) is dissolved in water at about pH 8.

[13] = molecular target: UDP Glucuronosyltransferase, UGT1A1 (Homo sapiens, UniProt P22309)
UDP Glucuronosyltransferase, UGT1A1, sequence (P22309 26-533): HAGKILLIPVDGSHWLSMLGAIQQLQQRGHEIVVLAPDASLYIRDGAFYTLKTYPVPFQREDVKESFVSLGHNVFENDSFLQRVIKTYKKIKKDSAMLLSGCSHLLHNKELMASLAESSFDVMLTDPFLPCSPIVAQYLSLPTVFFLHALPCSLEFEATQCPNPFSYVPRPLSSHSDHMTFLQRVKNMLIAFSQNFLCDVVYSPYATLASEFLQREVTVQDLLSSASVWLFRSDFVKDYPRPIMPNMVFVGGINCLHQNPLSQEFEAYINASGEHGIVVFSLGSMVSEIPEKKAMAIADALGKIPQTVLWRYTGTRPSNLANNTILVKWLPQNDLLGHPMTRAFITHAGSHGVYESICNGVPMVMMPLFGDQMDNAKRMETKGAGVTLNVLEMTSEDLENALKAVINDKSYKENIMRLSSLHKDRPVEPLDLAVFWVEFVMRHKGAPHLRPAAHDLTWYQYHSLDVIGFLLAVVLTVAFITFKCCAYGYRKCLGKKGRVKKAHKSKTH

[14] = molecular target: UGT1A1 (UDP glucuronosyltransferase) (Homo sapiens, UniProt P22309); assay: in vitro
UGT1A1 (UDP glucuronosyltransferase), sequence (P22309 26-533): as above

[15] = 10 uM, read-out: percent inhibition at 10 μM

Question: With `O=c1c(O)c(-c2ccc(O)c(OP(=O)(O)O)c2)oc2cc(O)ccc12` [fisetin-3′-O-phosphate, Fisetin-3′-O-phosphate] as the compound, how does the “percent inhibition at 10 μM” value [1] read?
Answer: 65%

Question: What about the “percent inhibition at 10 μM” value [2] of the same compound?
Answer: 72%

Question: What about the “percent inhibition at 10 μM” value [3] of the same compound?
Answer: 94%

Question: What about the “percent inhibition at 10 μM” value [4] of the same compound?
Answer: 96%

Question: And the “percent inhibition at 10 μM” value [5]?
Answer: 91%

Question: What about the “percent inhibition at 10 μM” value (Protein Tyrosine Kinase,) of the same compound?
Answer: 82%

Question: And the “percent inhibition at 10 μM” value [6]?
Answer: 74%

Question: And the “percent inhibition at 10 μM” value (AdenosineA1 [7])?
Answer: 50%

Question: What about the “percent inhibition at 10 μM” value (Adrenergic α2A) of the same compound?
Answer: 57%

Question: What about the “percent inhibition at 10 μM” value (Dopamine D47) of the same compound?
Answer: 51%

Question: What about the “percent inhibition at 10 μM” value [8] of the same compound?
Answer: 53%

Question: What about the “percent inhibition at 10 μM” value [9] of the same compound?
Answer: 68%

Question: What about the “percent inhibition at 10 μM” value [10] of the same compound?
Answer: 62%

Question: And the “antagonist activity in the AdenosineA1 assay” value (AdenosineA1 [11])?
Answer: 48%

Question: And the “inhibition in the AdrenergicA2A assay” value (AdrenergicA2A)?
Answer: marked negative inhibition

Question: What about the “degradation seen by NMR and HPLC” value [12] of the same compound?
Answer: no degradation

Question: What about the “percent inhibition at 10 μM” value [13] of the same compound?
Answer: 52%

Question: For `O=c1c(O)c(-c2ccc(O)c(OP(=O)(O)O)c2)oc2cc(O)cc(O)c12` [quercetin-3′-O-phosphate], which “percent inhibition at 10 μM” value ([1]; 10 uM) is on record?
Answer: 65%

Question: And the inhibition at 10 µM [2, 15]?
Answer: 72%

Question: What about the inhibition at 10 µM [3, 15] of the same compound?
Answer: 94%

Question: What about the inhibition at 10 µM [4, 15] of the same compound?
Answer: 96%

Question: And the inhibition at 10 µM [5, 15]?
Answer: 91%

Question: What about the “percent inhibition at 10 μM” value (Protein Tyrosine Kinase,; 10 uM) of the same compound?
Answer: 82%

Question: What about the inhibition at 10 µM [6, 15] of the same compound?
Answer: 74%

Question: What about the inhibition at 10 µM (AdenosineA1 [7]; [15]) of the same compound?
Answer: 50%

Question: What about the inhibition at 10 µM (Adrenergic α2A; [15]) of the same compound?
Answer: 57%

Question: What about the “percent inhibition at 10 μM” value (Dopamine D47; 10 uM) of the same compound?
Answer: 51%

Question: What about the inhibition at 10 µM [8, 15] of the same compound?
Answer: 53%

Question: And the “percent inhibition at 10 μM” value ([9]; 10 uM)?
Answer: 68%

Question: And the inhibition at 10 µM [10, 15]?
Answer: 62%

Question: And the “antagonist activity in the AdenosineA1 assay” value (AdenosineA1 [11]; 10 μM)?
Answer: 48%

Question: And the “inhibition in the AdrenergicA2A assay” value (AdrenergicA2A; 10 μM)?
Answer: marked negative inhibition

Question: And the “degradation seen by NMR and HPLC” value [12]?
Answer: no degradation

Question: What about the inhibition at 10 µM [14] of the same compound?
Answer: 52%

Source: patent US20100297020A1, “PHOSPHORYLATED AND PHOSPHONATED PYRONE ANALOGS FOR THERAPEUTIC TREATMENT” (Limerick Biopharma, Inc., priority 2008, published 2010)
